The record followed here is PubChem BioAssay (NCI).

Each structure is given as a SMILES string. Where “and” joins values, the source holds several entries; their conditions need not be identical. Equal entries are not always repeated.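 Tested at 5 concentrations; 48 h exposure; 96-well plates; endpoints linearly interpolated, else capped at highest concentration. Abbreviation: GI50, concentration required for 50% inhibition of growth. TGI is the concentration that stops growth completely.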

Among the test systems are XF 498 CNS; P388/ADR leukemia; P388 leukemia; DLD-1 colon; KM20L2 colon; DMS 273 small cell lung; MDA-N; RXF-631 renal; HOP-18 NSCLC; DMS 114 small cell lung; SNB-78 CNS.
Common to all, as to assay: NCI tumour cell line growth inhibition, 48 h

On to `COC(=O)NC1C(C)OC(OC2C/C=C(/C)C3C=CC4C(OC5CC(OC6CCC(OC7CC(O)C(OC8CCC(O)C(C)O8)C(C)O7)C(C)O6)C(OC(C)=O)C(C)O5)C(C)CC(C)C4C3(C)/C(O)=C3/C(=O)OC4(CC(C=O)=CC(O)C4/C=C\2C)C3=O)CC1(C)[N+](=O)[O-]` (stereo unspecified), for which the GI50 with XF 498 CNS was 385 nM; in the experiment with DLD-1 colon, 0.427 µM; in the experiment on KM20L2 colon it was 0.365 µM; in the experiment on DMS 273 small cell lung, 0.414 µM; in the experiment with DMS 114 small cell lung it was 0.19 µM; in the experiment with SNB-78 CNS, 0.59 µM. The TGI with XF 498 CNS was 0.5 µM and 2.06 µM; in the experiment with P388/ADR leukemia it was 17.3 µM; in the experiment on P388 leukemia, 2.05 µM; with DLD-1 colon it was 11.7 µM and 1.8 µM; in the experiment with KM20L2 colon, 3.68 µM and 1.42 µM; in the experiment with DMS 273 small cell lung, 3.73 µM and 3.26 µM. For the same compound, the TGI was 3.52 µM in the experiment with MDA-N; 10.8 µM with RXF-631 renal; 14.5 µM and 3.62 µM in the experiment with HOP-18 NSCLC; 1.76 µM and 0.494 µM in the experiment with DMS 114 small cell lung; 15.4 µM and 26.7 µM in the experiment on SNB-78 CNS.
On to `O=[N+]([O-])c1ccc(C2=Nc3ccccc3S(=O)C(c3ccccc3)C2)cc1` (stereo unspecified), for which the TGI in the experiment on XF 498 CNS was 47.9 µM; in the experiment with DLD-1 colon, 38.4 µM; with KM20L2 colon it was 57.8 µM; in the experiment with DMS 273 small cell lung, 52.5 µM; with RXF-631 renal it was 40.1 µM; with HOP-18 NSCLC it was greater than 100 µM. The compound also returned a TGI with DMS 114 small cell lung of 42.8 µM.
Turning to `Cc1ccccc1N=Nc1c(O)ccc2ccccc12`, the TGI in the experiment on MDA-N was greater than 100 µM.
In the case of `Cc1ccc(CNc2ccc(Br)cc2)cc1`, the TGI in the experiment with MDA-N was greater than 100 µM.
Regarding `CN(C)CCNC(=O)c1cccc2c1nc(-c1ccc(F)cc1)c1ccccc12`, the TGI in the experiment on DLD-1 colon was 15 µM; in the experiment with DMS 273 small cell lung it was 13 µM; in the experiment on HOP-18 NSCLC, 27.4 µM; in the experiment on DMS 114 small cell lung, 19.2 µM; with SNB-78 CNS, 25.7 µM.
`CC(C)(C)c1cc(CCC(=O)Nc2ccc(Cl)cc2)[nH]c(=S)n1`: the TGI with XF 498 CNS, with DLD-1 colon, in the experiment on KM20L2 colon, in the experiment with DMS 273 small cell lung, in the experiment with RXF-631 renal and in the experiment with HOP-18 NSCLC was greater than 100 µM in each case. This compound had a TGI in the experiment with DMS 114 small cell lung greater than 100 µM.
`COc1ccc(-c2cc(=O)c3c(O)c(OC)c(OC)c(OC)c3o2)cc1OC`: the TGI in the experiment with MDA-N is greater than 100 µM.
Turning to `Cc1ccc(NC(=O)CCCC(=O)CC(=O)c2ccc(Br)cc2)cc1`, the TGI with DLD-1 colon, in the experiment on KM20L2 colon, in the experiment with DMS 273 small cell lung, with RXF-631 renal, in the experiment with HOP-18 NSCLC and with DMS 114 small cell lung was greater than 100 µM throughout. This compound also came in with a TGI in the experiment with SNB-78 CNS greater than 100 µM.
`CC(=O)C1CCN(c2ccccc2)C1` (stereo unspecified): the TGI in the experiment with XF 498 CNS, with DLD-1 colon, with DMS 273 small cell lung, in the experiment on DMS 114 small cell lung and in the experiment on SNB-78 CNS was greater than 100 µM throughout.
Take `CCOC(=O)C(C)(NC(=O)c1ccc(NCc2ccc3nc(NC(=O)c4ccccc4)nc(NC(=O)c4ccccc4)c3c2)cc1)C(=O)OCC`: the TGI in the experiment with DLD-1 colon is greater than 100 µM; with KM20L2 colon, 85.3 µM; in the experiment on DMS 273 small cell lung, 27.5 µM; in the experiment with RXF-631 renal it was 51 µM; in the experiment on HOP-18 NSCLC, greater than 100 µM; in the experiment on DMS 114 small cell lung, 42 µM. The same compound displayed a TGI in the experiment on SNB-78 CNS of 45.4 µM.
As for `COC1C2C[C@@H](O)CCC2C(C(=O)OCCl)C[C@H]1O` (stereo partly specified), the TGI in the experiment on DLD-1 colon, in the experiment on KM20L2 colon, with DMS 273 small cell lung, in the experiment with RXF-631 renal, in the experiment with HOP-18 NSCLC and in the experiment on DMS 114 small cell lung was greater than 100 µM each time. In the experiment with SNB-78 CNS, this compound came in with a TGI greater than 100 µM.
Consider `CC(=O)OCC1OC(n2c(=S)n(-c3ccc([N+](=O)[O-])cc3)c(=O)c3ccccc32)C(OC(C)=O)C(OC(C)=O)C1OC(C)=O` (stereo unspecified), for which the GI50 in the experiment with DLD-1 colon was 21.9 µM and 30.4 µM; in the experiment with DMS 114 small cell lung, 23.7 µM and 18.1 µM; with SNB-78 CNS, 34.8 µM and 24.1 µM. Moreover, the TGI was greater than 100 µM with DLD-1 colon; > 100 µM and 87.7 µM with KM20L2 colon; 57.3 µM in the experiment on DMS 273 small cell lung; 82.3 µM with MDA-N; 57.7 µM and 51 µM in the experiment on RXF-631 renal; 64.4 µM in the experiment on HOP-18 NSCLC. Besides, the TGI in the experiment on DMS 114 small cell lung was > 100 µM and 53.8 µM; in the experiment with SNB-78 CNS, > 100 µM and 74.5 µM.
`O=C(O/N=C1\CCCC\C1=C/c1ccccc1)c1ccc([N+](=O)[O-])cc1`: the TGI with DLD-1 colon, with KM20L2 colon, in the experiment on DMS 273 small cell lung, with RXF-631 renal, in the experiment with HOP-18 NSCLC and in the experiment with DMS 114 small cell lung was greater than 100 µM in each case. This compound also had a TGI in the experiment on SNB-78 CNS greater than 100 µM.
With `Cn1c(CBr)nc2c1C(=O)c1nc(CBr)[nH]c(=O)c1C2=O`, the TGI in the experiment with DLD-1 colon, in the experiment with KM20L2 colon, in the experiment with RXF-631 renal, in the experiment on HOP-18 NSCLC and in the experiment with DMS 114 small cell lung was greater than 100 µM each time.
On to `CCCNC(=O)Nc1c([N+](=O)[O-])cc(C(F)(F)F)cc1[N+](=O)[O-]`, for which the TGI is greater than 100 µM in the experiment with XF 498 CNS; 61.4 µM with KM20L2 colon; greater than 100 µM in the experiment on DMS 273 small cell lung; greater than 100 µM in the experiment on RXF-631 renal; greater than 100 µM with SNB-78 CNS.
Turning to `CC(C)(CN1C(=O)C(Cl)=C(Cl)C1=O)CN1C(=O)C(Cl)=C(Cl)C1=O`, the TGI in the experiment on DLD-1 colon was 9.82 µM; in the experiment on KM20L2 colon, 40 µM; with DMS 273 small cell lung, 26.8 µM; with HOP-18 NSCLC it was 36.1 µM; with DMS 114 small cell lung, 25.2 µM; in the experiment on SNB-78 CNS, 45.1 µM.
Turning to `O=S1(=O)N2CN3CN(C2)CN1C3`, the TGI in the experiment with P388/ADR leukemia is 44 µM; with P388 leukemia, 47.6 µM; in the experiment with DLD-1 colon, 96.8 µM and 97.5 µM; in the experiment with KM20L2 colon, 180 µM; in the experiment on DMS 273 small cell lung it was > 31.6 µM and 142 µM; in the experiment with HOP-18 NSCLC, > 86.4 µM and 91.6 µM. Besides, the TGI with DMS 114 small cell lung was found to be 55.3 µM; in the experiment with SNB-78 CNS, 118 µM. Besides, the GI50 in the experiment on DLD-1 colon is 30.1 µM; in the experiment with KM20L2 colon, 37.1 µM; in the experiment with DMS 273 small cell lung, 32.8 µM; in the experiment on HOP-18 NSCLC it was 24.7 µM.
As for `C[C@H]1CC[P+](Cc2ccccc2)(c2ccccc2)C1` (stereo partly specified), the TGI in the experiment with DLD-1 colon, in the experiment with KM20L2 colon, in the experiment on DMS 273 small cell lung, with HOP-18 NSCLC and in the experiment with DMS 114 small cell lung was greater than 100 µM each time.
